Source: patent EP2293808B1, “AN SYNTHETIC PEPTIDE CONTAINING BONE FORMING PEPTIDE 1(BFP 1) FOR STIMULATING OSTEOBLAST DIFFERENTIATION, AND PHARMACEUTICAL COMPOSITION COMPRISING THE SYNTHETIC PEPTIDE” (Industry Foundation Of Chonnam National University, priority 2008, dated 2012)
Ends that are not written are not given here.

Test system: cells
Assay: MTT assay for cytotoxicity
Assay type: cell-based
Settings: within a range of used concentrations, FIG. 3

GQGFSYPYKAVFSTQ [BFP 1, Gly-Gln-Gly-Phe-Ser-Tyr-Pro-Tyr-Lys-Ala-Val-Phe-Ser-Thr-Gln]
cytotoxicity: not toxic to cells
